Active and inactive are the calls of the source.
What was measured:
[1] = molecular target: Zinc finger protein GLI2 (Homo sapiens) (UniProt P10070); assay: Reduction of GLI2 mediated transcription in HEK293 cells by luciferase reporter assay; type: cell-based
MEF = assay: Reduction in expression of Hedgehog target gene Hip1 in Sufu deficient mouse MEF cells; type: functional, cell-based
[2] = Reduction in expression of Hedgehog target gene Gli1 in Sufu deficient mouse embryonic fibroblast; type: functional
Mus musculus [3] = species on record: Mus musculus; assay: Reduction of Gil1 mRNA levels at 10 uM in Ptch deficient mouse embryonic fibroblast; type: functional
HEK293 [4] = assay: Induction of apoptosis in HEK293 cells assessed as caspase3/7 cleavage by luminometric assay; type: functional, cell-based; conditions: Homo sapiens
[5] = Reduction of expression of PTCH mRNA in human 22Rv cells; type: functional, cell-based
[6] = Reduction in GlI1 expression in human 22Rv cells at 5 uM; type: functional, cell-based
Homo sapiens = assay: Antitumor activity in GLI1 positive human 22Rv cells xenografted mouse model at 50 mg/kg, sc after 18 days; type: functional, organism-based; parameters: dose 50 mg/kg
[7] = molecular target: T1, Zinc finger protein GLI1 (Mus musculus) (UniProt P47806); assay: Inhibition of GLI1 induced hedgehog signaling in mouse NIH3T3 cells; type: cell-based
T1 sequence (whole entry): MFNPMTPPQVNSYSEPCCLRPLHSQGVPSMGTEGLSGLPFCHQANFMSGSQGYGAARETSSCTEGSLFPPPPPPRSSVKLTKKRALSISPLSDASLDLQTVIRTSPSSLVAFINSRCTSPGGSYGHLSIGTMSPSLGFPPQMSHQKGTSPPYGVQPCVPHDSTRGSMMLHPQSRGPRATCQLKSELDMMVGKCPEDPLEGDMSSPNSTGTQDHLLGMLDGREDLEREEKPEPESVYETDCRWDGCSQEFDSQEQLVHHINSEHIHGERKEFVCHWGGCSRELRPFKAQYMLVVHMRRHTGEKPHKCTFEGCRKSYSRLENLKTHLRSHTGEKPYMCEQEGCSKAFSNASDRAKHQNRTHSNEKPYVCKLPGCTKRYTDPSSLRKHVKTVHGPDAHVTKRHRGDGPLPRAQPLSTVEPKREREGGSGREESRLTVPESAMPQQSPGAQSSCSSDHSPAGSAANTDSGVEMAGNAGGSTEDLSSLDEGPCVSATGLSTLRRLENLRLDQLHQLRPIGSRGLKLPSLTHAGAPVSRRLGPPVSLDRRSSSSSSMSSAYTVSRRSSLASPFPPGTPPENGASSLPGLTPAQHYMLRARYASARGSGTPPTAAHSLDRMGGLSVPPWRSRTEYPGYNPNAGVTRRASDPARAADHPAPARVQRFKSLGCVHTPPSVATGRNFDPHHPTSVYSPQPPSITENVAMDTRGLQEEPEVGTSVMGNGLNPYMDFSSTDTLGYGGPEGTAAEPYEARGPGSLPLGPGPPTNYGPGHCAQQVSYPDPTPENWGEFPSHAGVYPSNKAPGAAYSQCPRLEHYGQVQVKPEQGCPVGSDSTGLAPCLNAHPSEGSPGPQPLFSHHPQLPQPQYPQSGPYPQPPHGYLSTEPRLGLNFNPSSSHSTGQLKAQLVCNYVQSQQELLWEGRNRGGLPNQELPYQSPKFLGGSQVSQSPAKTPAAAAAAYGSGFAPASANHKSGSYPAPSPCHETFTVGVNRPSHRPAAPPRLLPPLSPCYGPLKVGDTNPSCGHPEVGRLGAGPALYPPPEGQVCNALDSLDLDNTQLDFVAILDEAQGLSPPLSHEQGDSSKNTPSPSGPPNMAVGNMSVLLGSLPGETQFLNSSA

NIH3T3 [8] = assay: Effect on Hedgehog signaling in mouse NIH3T3 cells assessed as transactivation of glucocorticoid receptor; type: functional, cell-based
PANC-1 [9] = assay: Inhibition of Gli1 dependent growth of human PANC1 cells at 5 uM; type: functional; parameters: scale not given: the % may be the effect or the level left
HepG2 [10] = assay: Inhibition of Gli1 dependent growth of human HepG2 cells at 5 uM; type: functional; parameters: scale not given: the % may be the effect or the level left
DU146 = assay: Induction of apoptosis in human […] cells assessed as caspase3/7 cleavage by luminometric assay; type: functional, cell-based
NIH3T3 [11] = assay: Effect on Hedgehog signaling in mouse NIH3T3 cells assessed as activation of NF kappaB; type: functional, cell-based
[12] = Reduction in PTCH expression in human 22Rv cells at 5 uM; type: functional, cell-based
[13] = molecular target: T2, Zinc finger protein GLI1 (Homo sapiens) (UniProt P08151); assay: Inhibition of GLI via PKA activation in HEK293 cells; type: cell-based
T2 sequence (whole entry): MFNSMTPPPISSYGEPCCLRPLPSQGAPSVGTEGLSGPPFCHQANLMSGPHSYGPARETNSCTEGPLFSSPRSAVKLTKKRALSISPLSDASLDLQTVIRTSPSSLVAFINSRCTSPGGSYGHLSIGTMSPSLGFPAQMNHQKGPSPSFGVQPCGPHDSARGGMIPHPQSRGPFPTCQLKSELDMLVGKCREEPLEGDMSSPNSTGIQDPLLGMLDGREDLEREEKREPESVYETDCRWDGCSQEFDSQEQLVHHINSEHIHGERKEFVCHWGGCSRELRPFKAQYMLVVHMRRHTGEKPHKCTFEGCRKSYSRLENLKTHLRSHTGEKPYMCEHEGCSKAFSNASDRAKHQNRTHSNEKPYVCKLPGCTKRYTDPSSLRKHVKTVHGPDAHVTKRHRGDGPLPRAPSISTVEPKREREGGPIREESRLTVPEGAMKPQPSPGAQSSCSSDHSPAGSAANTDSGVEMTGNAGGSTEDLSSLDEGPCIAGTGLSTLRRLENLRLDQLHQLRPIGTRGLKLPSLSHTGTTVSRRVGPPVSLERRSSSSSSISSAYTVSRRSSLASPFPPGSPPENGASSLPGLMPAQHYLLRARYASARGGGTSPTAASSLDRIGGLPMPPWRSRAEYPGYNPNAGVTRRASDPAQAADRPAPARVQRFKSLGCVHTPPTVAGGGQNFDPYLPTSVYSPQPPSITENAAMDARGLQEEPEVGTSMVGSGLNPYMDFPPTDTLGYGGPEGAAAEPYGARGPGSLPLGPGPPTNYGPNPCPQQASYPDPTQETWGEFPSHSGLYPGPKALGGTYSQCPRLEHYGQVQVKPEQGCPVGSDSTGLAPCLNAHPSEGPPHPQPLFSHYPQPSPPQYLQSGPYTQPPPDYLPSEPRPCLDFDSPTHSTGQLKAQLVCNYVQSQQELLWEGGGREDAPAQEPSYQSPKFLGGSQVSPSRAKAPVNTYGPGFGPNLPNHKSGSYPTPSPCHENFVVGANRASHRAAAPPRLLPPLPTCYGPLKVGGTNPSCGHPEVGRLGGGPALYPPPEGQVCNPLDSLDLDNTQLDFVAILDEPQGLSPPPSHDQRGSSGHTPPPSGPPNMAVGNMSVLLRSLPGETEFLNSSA

[14] = Antiproliferative activity against Ptch deficient mouse embryonic fibroblast at 10 uM by BrdU incorporation; type: functional
NIH3T3 [15] = assay: Effect on Hedgehog signaling in mouse NIH3T3 cells assessed as transactivation of Ras-Raf-Mek-Mapk cascade; type: functional, cell-based
[16] = molecular target: T2, Zinc finger protein GLI1 (Homo sapiens); assay: Reduction of GLI1 mediated transcription in HEK293 cells by luciferase reporter assay; type: cell-based
HEK293 [17] = assay: Inhibition of beta galactosidase in HEK293 cells; type: cell-based; conditions: Homo sapiens
PANC-1 [18] = assay: Reduction in GLI1 expression in human PANC1 cells at 5 uM; type: functional, cell-based
NIH3T3 [19] = assay: Induction of apoptosis in mouse NIH3T3 cells assessed as caspase3/7 cleavage by luminometric assay; type: functional, cell-based
CWR22R = assay: Induction of apoptosis in human 22Rv1 cells assessed as caspase3/7 cleavage by luminometric assay; type: functional, cell-based
NIH3T3 [20] = assay: Effect on Hedgehog signaling in mouse NIH3T3 cells assessed as activation of TNF signaling; type: functional, cell-based
NIH3T3 [21] = assay: Inhibition of Hedgehog/Gli1 mediated transformation in mouse NIH3T3 cells at 10 uM; type: functional, cell-based
Mus musculus [22] = species on record: Mus musculus; assay: Reduction of Ptch1-lacZ level in mouse embryonic fibroblast by luminometric assay; type: functional
PANC-1 [23] = assay: Reduction in PTCH expression in human PANC1 cells at 5 uM; type: functional, cell-based
[24] = Inhibition of Gli1 dependent growth of human 22Rv cells at 5 uM; type: functional; parameters: scale not given: the % may be the effect or the level left
[25] = Inhibition of Hedgehog signaling in […] Shh-L2 cells; type: functional, cell-based
[26] = molecular target: T2, Zinc finger protein GLI1 (Homo sapiens); assay: Alteration in DNA binding to GLI1 in HEK293 cells; type: cell-based
HepG2 [27] = assay: Induction of apoptosis in human HepG2 cells assessed as caspase3/7 cleavage by luminometric assay; type: functional, cell-based
HEK293 [28] = assay: Inhibition of nuclear accumulation of GLI mutant in HEK293 cells; type: functional, cell-based; conditions: Homo sapiens
Jurkat [29] = assay: Inhibition of Gli1 dependent growth of human Jurkat cells at 5 uM; type: functional; parameters: scale not given: the % may be the effect or the level left
Jurkat [30] = assay: Induction of apoptosis in human Jurkat cells assessed as caspase3/7 cleavage by luminometric assay; type: functional, cell-based
HEK293 [31] = assay: Inhibition of nuclear accumulation of wild type GLI in HEK293 cells; type: functional, cell-based; conditions: Homo sapiens
Mus musculus [32] = species on record: Mus musculus; assay: Antiproliferative activity against mouse embryonic fibroblast at 10 uM assessed as microarray method; type: functional
Mus musculus [33] = species on record: Mus musculus; assay: Cytotoxicity against wild type mouse embryonic fibroblast at 10 uM after 48 hrs assessed as reduction in cell viability by MTS assay; type: functional
NIH3T3 [34] = assay: Cytotoxicity against mouse NIH3T3 cells at 10 uM after 48 hrs assessed as reduction in cell viability by MTS assay; type: functional, cell-based
HepG2 [35] = assay: Cytotoxicity against human HepG2 cells at 10 uM after 48 hrs assessed as reduction in cell viability by MTS assay; type: functional, cell-based

Zinc finger protein GLI2 (Homo sapiens), sequence (P10070 whole entry): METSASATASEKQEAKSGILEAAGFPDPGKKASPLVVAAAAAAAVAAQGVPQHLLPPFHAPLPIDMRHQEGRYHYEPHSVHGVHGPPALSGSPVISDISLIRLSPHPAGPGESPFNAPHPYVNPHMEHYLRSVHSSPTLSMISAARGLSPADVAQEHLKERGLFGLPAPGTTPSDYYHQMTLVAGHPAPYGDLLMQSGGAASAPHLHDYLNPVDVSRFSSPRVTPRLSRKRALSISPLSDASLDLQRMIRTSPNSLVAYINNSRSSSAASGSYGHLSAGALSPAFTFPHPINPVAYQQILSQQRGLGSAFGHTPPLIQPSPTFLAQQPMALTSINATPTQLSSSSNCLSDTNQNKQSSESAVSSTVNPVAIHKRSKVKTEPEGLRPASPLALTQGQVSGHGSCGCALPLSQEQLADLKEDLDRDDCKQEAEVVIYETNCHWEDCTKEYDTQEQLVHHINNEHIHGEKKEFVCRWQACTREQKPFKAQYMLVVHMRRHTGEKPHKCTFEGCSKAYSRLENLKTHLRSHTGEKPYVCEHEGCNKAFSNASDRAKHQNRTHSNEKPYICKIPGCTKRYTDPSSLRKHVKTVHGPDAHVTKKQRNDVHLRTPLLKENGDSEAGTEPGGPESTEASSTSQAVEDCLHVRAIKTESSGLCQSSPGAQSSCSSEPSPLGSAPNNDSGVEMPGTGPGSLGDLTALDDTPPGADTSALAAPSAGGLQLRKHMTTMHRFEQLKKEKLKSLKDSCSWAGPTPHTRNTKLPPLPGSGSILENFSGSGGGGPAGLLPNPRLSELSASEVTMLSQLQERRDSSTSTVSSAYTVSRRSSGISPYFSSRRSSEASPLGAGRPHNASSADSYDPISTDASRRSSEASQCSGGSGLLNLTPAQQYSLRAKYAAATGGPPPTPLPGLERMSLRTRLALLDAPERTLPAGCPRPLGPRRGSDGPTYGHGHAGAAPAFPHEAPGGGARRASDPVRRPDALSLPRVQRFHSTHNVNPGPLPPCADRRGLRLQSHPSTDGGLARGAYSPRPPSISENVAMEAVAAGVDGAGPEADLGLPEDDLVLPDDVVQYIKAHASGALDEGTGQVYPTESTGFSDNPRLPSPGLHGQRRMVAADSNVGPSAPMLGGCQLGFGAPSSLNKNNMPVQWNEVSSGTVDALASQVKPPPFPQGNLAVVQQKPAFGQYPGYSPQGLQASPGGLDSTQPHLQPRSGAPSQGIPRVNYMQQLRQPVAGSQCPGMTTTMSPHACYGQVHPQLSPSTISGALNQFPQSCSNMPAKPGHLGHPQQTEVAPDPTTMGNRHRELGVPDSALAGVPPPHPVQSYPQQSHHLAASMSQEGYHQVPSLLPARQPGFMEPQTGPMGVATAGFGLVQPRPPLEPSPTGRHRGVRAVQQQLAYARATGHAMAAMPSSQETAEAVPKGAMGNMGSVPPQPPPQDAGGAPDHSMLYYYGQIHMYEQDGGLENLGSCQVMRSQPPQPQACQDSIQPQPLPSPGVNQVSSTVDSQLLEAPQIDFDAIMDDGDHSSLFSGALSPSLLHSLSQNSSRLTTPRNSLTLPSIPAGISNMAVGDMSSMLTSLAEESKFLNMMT

c1cc(-c2sc(-c3ccncc3)c(-c3ccncc3)c2-c2ccncc2)ccn1
0%: Activity (HepG2 [10]) | Activity (Jurkat [29])
40%: Activity (PANC-1 [9]) | Activity [14] | Activity [24]
active: Activity [1] | Activity (MEF) | Activity [2] | Activity (Mus musculus [3]) | Activity [5] | Activity [6] | Activity (Homo sapiens) | Activity [7] | Activity [12] | Activity [16] | Activity (HEK293 [17]) | Activity (PANC-1 [18]) | Activity (NIH3T3 [21]) | Activity (Mus musculus [22]) | Activity (PANC-1 [23]) | Activity (HEK293 [28]) | Activity (HEK293 [31])
5 µM: IC50 [25]
inactive: Activity (HEK293 [4]) | Activity (NIH3T3 [8]) | Activity (DU146) | Activity (NIH3T3 [11]) | Activity [13] | Activity (NIH3T3 [15]) | Activity (NIH3T3 [19]) | Activity (CWR22R) | Activity (NIH3T3 [20]) | Activity [26] | Activity (HepG2 [27]) | Activity (Jurkat [30])

CN(C)c1ccccc1CN1CCCN(Cc2ccccc2N(C)C)C1c1ccncc1
0%: Activity (HepG2 [10]) | Activity (Jurkat [29])
40%: Activity (PANC-1 [9]) | Activity [14] | Activity [24]
5 µM: IC50 [25]
inactive: Activity (HEK293 [4]) | Activity (NIH3T3 [8]) | Activity (DU146) | Activity (NIH3T3 [11]) | Activity [13] | Activity (NIH3T3 [15]) | Activity (NIH3T3 [19]) | Activity (CWR22R) | Activity (NIH3T3 [20]) | Activity [26] | Activity (HepG2 [27]) | Activity (Mus musculus [33]) | Activity (NIH3T3 [34]) | Activity (Jurkat [30]) | Activity (HepG2 [35])
active: Activity [1] | Activity (MEF) | Activity [2] | Activity (Mus musculus [3]) | Activity [5] | Activity [6] | Activity (Homo sapiens) | Activity (Mus musculus [32]) | Activity [7] | Activity [12] | Activity [16] | Activity (HEK293 [17]) | Activity (PANC-1 [18]) | Activity (NIH3T3 [21]) | Activity (Mus musculus [22]) | Activity (PANC-1 [23]) | Activity (HEK293 [28]) | Activity (HEK293 [31])

CC1=C2C[C@H]3[C@@H](CC=C4C[C@@H](O)CC[C@@]43C)[C@@H]2CC[C@]12O[C@@H]1C[C@H](C)CN[C@H]1[C@H]2C [CYCLOPAMINE]
active: Activity (Mus musculus [3]) | Activity [5] | Activity (HEK293 [17]) | Activity (Mus musculus [22])
inactive: Activity (MEF) | Activity [2]
40%: Activity [14]

— ChEMBL document CHEMBL1156467, “Inhibition of GLI-mediated transcription and tumor cell growth by small-molecule antagonists” (Proc Natl Acad Sci U S A, 2007)
